Results published in patent publication US20180071317A1, “USE OF AGENTS THAT ALTER THE PERITUMORAL ENVIRONMENT FOR THE TREATMENT OF CANCER” (SERVICIO ANDALUZ DE SALUD, priority 2011, published 2018).

Columns and labels:
[1] = tested on: tumor cells from primary human tumors (MAP Kinase pathway); assay: Proliferation of primary human tumor cells (ERK modified or unchanged) alone or with stromal fibroblasts; format: cell-based; settings: antagonist 1 μM
[2] = tested on: tumor cells from primary human tumors (PI3 Kinase pathway); assay: Proliferation of primary human tumor cells (AKT modified or unchanged) alone or with stromal fibroblasts; format: cell-based; settings: antagonist 1 μM
[3] = tested on: tumor cells from primary human tumors (MAP Kinase pathway); assay: Proliferation of primary human tumor cells (ERK modified or unchanged) alone or with macrophages; format: cell-based; settings: antagonist 1 μM
[4] = tested on: tumor cells from primary human tumors (PI3 Kinase pathway); assay: Proliferation of primary human tumor cells (AKT modified or unchanged) alone or with macrophages; format: cell-based; settings: antagonist 1 μM
[5] = tested on: cell line C-12210 (microvascular endothelial cells); assay: Proliferation of C-12210 endothelial cell cultures (MTS); format: cell-based, human;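 note: MTS colorimetric read-out in culture wells, absorbance at 492 nm with 690 nm reference, MTS added 90 min before reading, blank without cells, compared with untreated control cells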
[6] = tested on: human primary macrophages (PHM); assay: IL-8 Western blotting in human primary macrophages; format: cell-based; settings: cultured in the presence of SP
Excerpt: Further cells that make up the microenvironment are peritumoral macrophage lineage cells that are of great importance in the development of the microenvironment around the tumor, by interacting with tumor cells to stimulate their growth and spread by secretion into the medium of different markers that promote the expansion and growth of tumors. In this sense the next step was to analyze the effect exerted by the treatment with non-peptide NK1 antagonists in human primary macrophages (PHM) obtained and purified from pleural effusion samples obtained from men with chronic age range between 45 and 55 years. Briefly, the pleural fluid from chronic (rich in macrophages) was centrifuged. […]
Similar results were obtained in the case of TNF-α, respect to its expression to those obtained using the other markers analyzed: EGF, MMP-9 and VEGF, i.e., the treatment with the non-peptide receptor NK1 inhibited the TNF-α marker expression. Also the presence of IL-8 were determined by Western blotting, as explained in Example 1, using […] primary antibody (AB1427, Merck-Millipore).

[7] = irrespective of MAP Kinases pathway integrity

How did the “growth of primary tumor cells cultured alone (in words)” value ([1]; ERK modified or unchanged) turn out when `C[C@@H](O[C@H]1OCCN(Cc2n[nH]c(=O)[nH]2)[C@H]1c1ccc(F)cc1)c1cc(C(F)(F)F)cc(C(F)(F)F)c1` [Aprepitant] was run?
The value was “only inhibits the growth of cells in which the receptor acts NK1 through the MAP Kinases pathway”.

And the “proliferation of primary tumor cells co-cultured with stromal fibroblasts (in words)” value [1, 7]?
Its value is “produces a proliferation of inhibition of tumor cells”.

And the “growth of primary tumor cells cultured alone (in words)” value ([2]; AKT modified or unchanged)?
The value was “only inhibits the growth of cells in which said receptor acts through the PI3 Kinase pathway”.

What about the “proliferation of primary tumor cells co-cultured with stromal fibroblasts (in words)” value ([2]; irrespective of PI3 kinases pathway integrity) of the same compound?
The value was “produces a proliferation of inhibition of tumor cells”.

And the “growth of primary tumor cells cultured alone (in words)” value ([3]; ERK modified or unchanged)?
The value was “only inhibits the growth of cells in which said receptor acts through the MAP Kinases pathway”.

And the “proliferation of primary tumor cells co-cultured with macrophages (in words)” value [3, 7]?
The value was “produces a proliferation of inhibition of tumor cells”.

What about the “growth of primary tumor cells cultured alone (in words)” value ([4]; AKT modified or unchanged) of the same compound?
Its value is “only inhibits the growth of cells in which said receptor acts through the PI3 Kinase pathway”.

What about the “proliferation of primary tumor cells co-cultured with macrophages (in words)” value ([4]; irrespective of PI3 Kinase pathway integrity) of the same compound?
The value was “produces a proliferation of inhibition of tumor cells”.

How did the “proliferation, percentage of control ± SD” value ([5]; SP 10 nM, exposure 0 h) turn out when `CSCC[C@H](NC(=O)[C@H](CC(C)C)NC(=O)CNC(=O)[C@H](Cc1ccccc1)NC(=O)[C@H](Cc1ccccc1)NC(=O)[C@H](CCC(N)=O)NC(=O)[C@H](CCC(N)=O)NC(=O)[C@@H]1CCCN1C(=O)[C@H](CCCCN)NC(=O)[C@@H]1CCCN1C(=O)[C@@H](N)CCCNC(=N)N)C(N)=O` [SP] was run?
Its value is 102.2 ± 1%.

And the “proliferation, percentage of control ± SD” value ([5]; SP 10 nM, exposure 24 h)?
Its value is 119.1 ± 1.8%.

What about the “proliferation, percentage of control ± SD” value ([5]; SP 10 nM, exposure 48 h) of the same compound?
Its value is 139.3 ± 3.1%.

What about the “proliferation, percentage of control ± SD” value ([5]; SP 10 nM, exposure 72 h) of the same compound?
Its value is 134.3 ± 2.8%.

And the “proliferation, percentage of control ± SD” value ([5]; SP 100 nM, exposure 0 h)?
Its value is 109.5 ± 2.9%.

What about the “proliferation, percentage of control ± SD” value ([5]; SP 100 nM, exposure 24 h) of the same compound?
The value was 17 ± 2.7%.

And the “proliferation, percentage of control ± SD” value ([5]; SP 100 nM, exposure 48 h)?
The value was 21 ± 2.6%.

What about the “proliferation, percentage of control ± SD” value ([5]; SP 100 nM, exposure 72 h) of the same compound?
The value was 32.4 ± 3.3%.

And the “proliferation, percentage of control ± SD” value ([5]; SP 500 nM, exposure 0 h)?
Its value is 128.9 ± 2.7%.

What about the “proliferation, percentage of control ± SD” value ([5]; SP 500 nM, exposure 24 h) of the same compound?
The value was 137 ± 3.8%.

And the “proliferation, percentage of control ± SD” value ([5]; SP 500 nM, exposure 48 h)?
The value was 146 ± 4.7%.

What about the “proliferation, percentage of control ± SD” value ([5]; SP 500 nM, exposure 72 h) of the same compound?
Its value is 158.5 ± 4.6%.

And the “proliferation, percentage of control ± SD” value ([5]; SP 1 μM, exposure 0 h)?
The value was 175.3 ± 5.2%.

What about the “proliferation, percentage of control ± SD” value ([5]; SP 1 μM, exposure 24 h) of the same compound?
The value was 186 ± 6.3%.

What about the “proliferation, percentage of control ± SD” value ([5]; SP 1 μM, exposure 48 h) of the same compound?
Its value is 194.4 ± 6.5%.

And the “proliferation, percentage of control ± SD” value ([5]; SP 1 μM, exposure 72 h)?
The value was 199 ± 5.5%.

And the “proliferation, percentage of control ± SD” value ([5]; SP 50 μM, exposure 0 h)?
The value was 218 ± 3.5%.

And the “proliferation, percentage of control ± SD” value ([5]; SP 50 μM, exposure 24 h)?
The value was 242 ± 6.7%.

What about the “proliferation, percentage of control ± SD” value ([5]; SP 50 μM, exposure 48 h) of the same compound?
The value was 247 ± 6.5%.

What about the “proliferation, percentage of control ± SD” value ([5]; SP 50 μM, exposure 72 h) of the same compound?
The value was 259.4 ± 4.1%.

What about the “proliferation, percentage of control ± SD” value ([5]; SP 100 μM, exposure 0 h) of the same compound?
The value was 236.4 ± 5.6%.

What about the “proliferation, percentage of control ± SD” value ([5]; SP 100 μM, exposure 24 h) of the same compound?
Its value is 258 ± 4.5%.

And the “proliferation, percentage of control ± SD” value ([5]; SP 100 μM, exposure 48 h)?
The value was 259.5 ± 4.6%.

And the “proliferation, percentage of control ± SD” value ([5]; SP 100 μM, exposure 72 h)?
Its value is 266.9 ± 6.8%.

And the “effect on growth/proliferation of C-12210 cells (in words)” value ([5]; increasing concentrations)?
The value was “stimulating effect on the growth of human endothelial cells”.

What about the “IL-8 expression in macrophages, Western blotting (in words)” value [6] of the same compound?
Its value is “showed expression of this marker”.
